# Laboratory results published in patent US20130310352A1, “DEXAMETHASONE COMBINATION THERAPY” (priority 2010, published 2013).
# Tests used:
# Format in all cases: cell-based, human
# MM.1S cells [1] = assay: Apoptosis with or without IL-6 addition (positive control); conditions: 40 μg/ml dexamethasone, rhIL-6
# Description: IL-6 is an important survival cytokine for MM (Klein B, Zhang X G, Jourdan M, et al. Interleukin-6 is the central tumor growth factor in vitro and in vivo in multiple myeloma. Eur Cytokine Netw. 1990; 1 (4):193-201; Gado K, Domjan G, Hegyesi H, Falus A. Role of INTERLEUKIN-6 in the pathogenesis of multiple myeloma. Cell Biol Int. 2000; 24 (4):195-209). […] For this purpose, different MM cell lines ARP1, MM.1S and MM.1R were cultured with or without recombinant hIL-6 (final concentration […]) and treated with or without 10 μM compound A for 2 days. As a positive control, MM.1S cells were treated with 40 μg/ml of dexamethasone with or without hIL-6 addition for the same period of time.
# (§1) MM cell lines ARP1, MM.1S and MM.1R were cultured with 10 μM compound A for 3 days. rhIL-6 were added to final concentration of 5 ng/ml. As a positive control, MM.1S cells were treated with 40 μg/ml dexamethasone in the presence of 5 ng/ml of rhIL6 for the same time. Cells apoptosis rate was measured by annexin V staining. (B). Same MM cells were co-cultured with or without MM BMSC, and treated with 10 μM of compound A for 1 day. As a positive control, MM.1S cells were cocultured with or without BMSC and treated with 40 μg/ml dexamethasone for 1 day. CD138+ MM cells apoptosis rate was measured by Annexin V staining.
# MM.1S cells [2] = assay: Apoptosis in coculture with BMSCs (positive control); conditions: 40 μg/ml dexamethasone, 24 hours, BMSC coculture
# Description: For this purpose, BMSCs isolated from MM patient were cocultured with MM cell lines ARP1, MM.1S and MM.1R. The cells were treated with or without 10 μM of compound A for 24 hours. As a positive control, MM.1S cells were cocultured with or without BMSC and treated with or without 40 μg/ml of dexamethasone for 24 hours. After treatment, the MM cells were identified as CD138+ cells by APC-CD138 staining.
# as §1
# [3] = test system: MM cells ARP1, MM.1S and MM.1R; assay: Low-dose single agents, apoptosis; conditions: 40 μg/ml dexamethasone alone, 1 day
# Description: Compound A-induced cell apoptosis was detected by Annexin V binding assay as previously described (Zheng Y, Cai Z, Wang S, et al. Macrophages are an abundant component of myeloma microenvironment and protect myeloma cells from chemotherapy drug-induced apoptosis. Blood. 2009; 114 (17):3625-3628). Briefly, MM cells were cultured in 24-well plates and treated with 0 to 1 mM final concentrations of compound A for 24 or 72 hours. The cells were washed twice with cold PBS and resuspended in Annexin V binding buffer (Invitrogen). MM cells were stained with FITC-conjugated Annexin V and propidium iodide (PI) for 15 min at room temperature. Apoptotic cells were determined as Annexin V positive cells.
# Next, the experiment was extended to other MM cell lines, and they were treated with low compound A (1 μM) and dexamethasone (40 μg/ml).
# ARP1 cells were treated with 10 μM compound A (BK), 15 nM melphalan (Me), 40 μg/ml dexamethasone (De), 100 μM lenalidomide (Le), 10 μM Bortizomib (BT), or their combinations for 1 day. The cell apoptosis were measured as described. […] Cell apoptosis was measured. […] Same MM cell lines were treated with compound A for 1 day and cell growth were measured by MTS. […] Cell apoptosis were measured by annexin V staining. […] Cells apoptosis rates were measured by annxin V staining. […]
structure (smiles),measurement,setting,value
"C[C@@H]1C[C@H]2[C@@H]3CCC4=CC(=O)C=C[C@]4(C)[C@@]3(F)[C@@H](O)C[C@]2(C)[C@@]1(O)C(=O)CO [dexamethasone, (8S,9R,10S,11S,13S,14S,16R,17R)-9-Fluoro-11,17-dihydroxy-17-(2-hydroxyacetyl)-10,13,16-trimethyl-6,7,8,9,10,11,12,13,14,15,16,17-dodecahydro-3H-cyclopenta[a]phenanthren-3-one]",effect of IL6 addition under dexamethasone treatment,MM.1S cells [1],promoted MM.1S cells survival
same,effect of BMSCs on dexamethasone induced cell apoptosis,MM.1S cells [2],protected MM.1S cells
same,cytotoxic effect of low dose alone,[3],only limited cytotoxic effect
